Measured values: patent US20260137742A1, “Composition for Activating Transient Receptor Potential Ankyrin 1, and Composition for Enhancing Food Consumption and/or Ameliorating Decreased Appetite” (HOUSE FOODS GROUP INC., priority 2022, published 2026)

Key:
human TRPA1 (hTRPA1) [1] = target: T1, human TRPA1 (hTRPA1) (Homo sapiens, UniProt O75762); assay: Intracellular Ca2+ Imaging Assay 2 (stepwise concentrations 0.01 μM-300 μM); format: cell-based
T1 construct: expressed in transfected cells
Description: (§1) A DNA coding for human TRPA1 (hTRPA1) (GenBank accession number: NM_007332.3) was inserted into the pcDNA5/TO vector (Invitrogen) to create an expression vector. This expression vector was transfected into T-REx™-293 cells (Invitrogen) by a conventional method using Lipofectamine LTX (Invitrogen). Using 10% fetal bovine serum (FBS, Cytiva), 400μ/mL hygromycin B, and 5 μg/mL blasticidin S, which were added to Dulbecco's Modified Eagle Medium (DMEM, Nacalai Tesque) as drug selection medium, the transfectants were cultured by a conventional method and cloned to obtain an hTRPA1 stable expression cell line.
(§2) Next, an hTRPA1 stable expression cell line whose hTRPA1 expression had been induced in advance by a conventional method was prepared in a 96-well clear-bottom plate; after washing each well with PBS, 50 μL of assay buffer (Hank's Balanced Salt Solution without calcium and magnesium ions, containing 1 mM CaCl2 dihydrate, 20 mM HEPES, 0.1% BSA, and 4 μM Calbryte™ 520 AM (manufactured by AAT BioQuest)) was added and incubated for 45 minutes at 33° C. After washing with assay buffer, 100 μL of assay buffer was added to each well.
(§3) This plate was set in FlexStation3 (Molecular Devices) and the fluorescence intensity (excitation at 490 nm, emission at 525 nm) was measured every 2 seconds at 31° C.; 30 seconds after the start of measurement, 100 μL of assay buffer containing the negative control DMSO (final concentration: 20 μL/mL), the positive control allyl isothiocyanate (AITC) (AITC was dissolved in DMSO; final concentration: 30 μM), each mushroom extract solution described above, or lenthionine (manufactured by Ambeed, Inc.) (lenthionine was dissolved in DMSO; final concentration: 50 μM) was added. In addition, to determine the reference for fluorescence intensity, wells to which assay buffer containing ionomycin (final concentration: 10 µM after addition) was added were prepared instead of the test samples.
(§4) Fluorescence intensity measurement was continued until 120 seconds from the start; the TRPA1-activating ability of the test samples and so forth was calculated using the formula below.
Aside from using samples in which the concentrations of AITC or lenthionine were set stepwise in the range of 0.01 μM-300 μM, the procedure was the same as in (2) above; the TRPA1-activating abilities of each sample were measured.

human TRPA1 (hTRPA1) [2] = target: T1, human TRPA1 (hTRPA1); assay: Intracellular Ca2+ Imaging Assay 3 (with or without TRPA1-specific antagonist A-967079); format: cell-based
Description: as §1, §2, §3, §4
Samples of 30 μM AITC, 100 μM or 5 μM lenthionine, or DMSO were used; the test was performed either in the presence of the TRPA1-specific antagonist A-967079 (1 μM) or in the absence thereof (DMSO: 20 μL/mL); apart from this, the procedure was the same as in (3) above, and the TRPA1-activating abilities of each sample were measured.

human TRPA1 (hTRPA1) [3] = target: T1, human TRPA1 (hTRPA1); assay: Intracellular Ca2+ Imaging Assay 1 (TRPA1 activation rate, hTRPA1 stable expression cell line); format: cell-based; settings: for TRPA1 Activation Rate (Mean ± Standard Error): relative to ionomycin, n = 6
Description: as §1
Two hundred microliters of each mushroom extract solution prepared in item 1 (1) was dispensed and the solvent was removed under vacuum using a desiccator. The dried residue left in the container was dissolved in 1 mL of assay buffer (Hank's Balanced Salt Solution without calcium and magnesium ions, containing 1 mM CaCl2 dihydrate, 20 mM HEPES, and 0.1% BSA). […]
as §3, §4
Fmax[s]: maximum fluorescence intensity after adding the test sample or positive control […]
Fmax[I]: maximum fluorescence intensity after adding ionomycin

Male ICR mice = assay: Test 1 for Ameliorating Decreased Appetite (food intake in mice after single gastric gavage); format: in vivo; settings: for Food Intake (Mean ± Standard Error, n = 10): lenthionine 50 μmol/kg body weight, single gastric gavage, 30 minutes after start of feeding
Description: Male ICR mice were kept in individual cages with ALPHA-dri (Shepherd Specialty Papers) as bedding, and they were fed a powdered diet (CE-2, CLEA Japan) using a powder feeder for mice (SN-950, Shinano Seisakusho Co., Ltd.), with ad libitum feeding and free access to water, for at least one week for acclimatization. During the few days prior to the experiment, daily handling and gavage training using a feeding needle (FG4202, Fuchigami Kikai) were performed.
As test samples, the following were prepared for each of carrier solution (containing, by volume, 5% dimethyl sulfoxide, 1% Tween80, and 94% corn oil) and lenthionine solution (carrier solution containing 0.94 mg lenthionine per 1 mL): one containing the TRPA1-specific antagonist A-967079 (1.0 μmol of A-967079 per 1 mL of the carrier solution) and one not containing it; one of these was administered to 11- to 12-week-old mice under ad libitum feeding conditions by a single gastric gavage at 9:20 a.m. at 10 mL/kg body weight. The dose of lenthionine in molar terms was 50 μmol/kg body weight. Immediately after the single gavage, at 9:30 a.m., the powdered feeder inside the cage was replaced with a new feeder loaded with powdered diet whose mass had been measured beforehand; this time point was set as the start of the feeding experiment. Thirty minutes after the start of the feeding experiment, the mass of the feeder and any spilled feed in the cage was measured, and the food intake (g) was calculated (n=10).

T1 sequence (O75762 whole entry): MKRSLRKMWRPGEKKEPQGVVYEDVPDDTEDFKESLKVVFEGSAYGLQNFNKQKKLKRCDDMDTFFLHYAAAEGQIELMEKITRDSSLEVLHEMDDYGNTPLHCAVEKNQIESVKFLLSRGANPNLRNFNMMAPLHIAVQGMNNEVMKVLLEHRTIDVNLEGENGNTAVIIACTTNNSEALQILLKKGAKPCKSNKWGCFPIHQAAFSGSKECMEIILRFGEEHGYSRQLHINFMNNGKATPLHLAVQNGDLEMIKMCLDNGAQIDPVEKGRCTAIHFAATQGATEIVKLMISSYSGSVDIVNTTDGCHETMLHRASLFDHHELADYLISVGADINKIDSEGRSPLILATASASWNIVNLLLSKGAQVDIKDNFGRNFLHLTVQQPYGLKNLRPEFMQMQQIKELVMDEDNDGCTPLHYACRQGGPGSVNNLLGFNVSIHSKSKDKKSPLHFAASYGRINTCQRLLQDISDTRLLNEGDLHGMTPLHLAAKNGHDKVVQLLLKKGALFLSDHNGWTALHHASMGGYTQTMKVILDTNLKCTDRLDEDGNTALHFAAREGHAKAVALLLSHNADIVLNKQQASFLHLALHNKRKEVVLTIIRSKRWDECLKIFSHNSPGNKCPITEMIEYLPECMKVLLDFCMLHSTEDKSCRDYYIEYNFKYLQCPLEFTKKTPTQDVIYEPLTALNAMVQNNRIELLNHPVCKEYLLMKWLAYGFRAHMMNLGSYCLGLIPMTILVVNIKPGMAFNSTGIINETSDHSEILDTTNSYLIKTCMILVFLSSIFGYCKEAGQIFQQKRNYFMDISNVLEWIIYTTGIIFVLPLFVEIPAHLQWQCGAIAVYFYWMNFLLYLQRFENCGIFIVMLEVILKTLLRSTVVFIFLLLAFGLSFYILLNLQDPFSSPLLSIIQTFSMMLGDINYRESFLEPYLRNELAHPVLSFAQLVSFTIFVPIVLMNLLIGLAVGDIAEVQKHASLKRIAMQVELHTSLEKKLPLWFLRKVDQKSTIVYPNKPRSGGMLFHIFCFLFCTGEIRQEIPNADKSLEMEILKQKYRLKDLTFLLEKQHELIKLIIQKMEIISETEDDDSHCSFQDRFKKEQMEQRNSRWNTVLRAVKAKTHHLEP

C=CCN=C=S [AITC, allyl isothiocyanate, reference compound]
TRPA1 Activation Rate (Mean ± Standard Error, n = 6) (human TRPA1 (hTRPA1) [1]; 0.01 μM): 4.02 ± 0.50% | TRPA1 Activation Rate (Mean ± Standard Error, n = 6) (human TRPA1 (hTRPA1) [1]; 0.1 μM): 5.20 ± 0.19% | TRPA1 Activation Rate (Mean ± Standard Error, n = 6) (human TRPA1 (hTRPA1) [1]; 0.5 μM): 6.19 ± 0.32% | TRPA1 Activation Rate (Mean ± Standard Error, n = 6) (human TRPA1 (hTRPA1) [1]; 1 μM): 13.0 ± 1.79% | TRPA1 Activation Rate (Mean ± Standard Error, n = 6) (human TRPA1 (hTRPA1) [1]; 5 μM): 64.0 ± 4.13% | TRPA1 Activation Rate (Mean ± Standard Error, n = 6) (human TRPA1 (hTRPA1) [1]; 10 μM): 85.2 ± 3.76% | TRPA1 Activation Rate (Mean ± Standard Error, n = 6) (human TRPA1 (hTRPA1) [1]; 50 μM): 105 ± 1.86% | TRPA1 Activation Rate (Mean ± Standard Error, n = 6) (human TRPA1 (hTRPA1) [1]; 100 μM): 117 ± 2.57% | TRPA1 Activation Rate (Mean ± Standard Error, n = 6) (human TRPA1 (hTRPA1) [1]; 300 μM): 119 ± 2.74% | TRPA1 Activation Rate (Mean ± Standard Error, n = 6) (human TRPA1 (hTRPA1) [2]; 30 μM, No Antagonist (DMSO 20 μL/mL)): 156 ± 1.38% | TRPA1 Activation Rate (Mean ± Standard Error, n = 6) (human TRPA1 (hTRPA1) [2]; 30 μM, With Antagonist A-967079 (1 μM)): 1.22 ± 0.06 % | TRPA1 Activation Rate (Mean ± Standard Error) (human TRPA1 (hTRPA1) [3]; AITC 30 μM final concentration): 106 ± 1.89%

C1SSCSSS1 [Lenthionine, 1,2,3,5,6-pentathiepane]
Food Intake (Mean ± Standard Error, n = 10) (Male ICR mice; No Antagonist): 0.117 ± 0.035 g | Food Intake (Mean ± Standard Error, n = 10) (Male ICR mice; With Antagonist A-967079 (1.0 μmol per 1 mL)): 0.025 ± 0.023 g | Food intake versus carrier solution (in words) (Male ICR mice; lenthionine solution with TRPA1-specific antagonist A-967079): no increase in food intake was observed | Food intake versus carrier solution (in words) (Male ICR mice; lenthionine solution, No Antagonist): food intake increased | TRPA1 Activation Rate (Mean ± Standard Error, n = 6) (human TRPA1 (hTRPA1) [1]; 0.01 μM): 2.64 ± 0.19% | TRPA1-activating effect, concentration dependence (in words) (human TRPA1 (hTRPA1) [1]; 0.01 μM-300 μM, compared with AITC): activated TRPA1 in a concentration-dependent manner, at similar intensity to AITC | TRPA1 Activation Rate (Mean ± Standard Error, n = 6) (human TRPA1 (hTRPA1) [1]; 0.1 μM): 2.42 ± 0.14% | TRPA1 Activation Rate (Mean ± Standard Error, n = 6) (human TRPA1 (hTRPA1) [1]; 0.5 μM): 10.2 ± 0.82% | TRPA1 Activation Rate (Mean ± Standard Error, n = 6) (human TRPA1 (hTRPA1) [1]; 1 μM): 22.3 ± 1.04% | TRPA1 Activation Rate (Mean ± Standard Error, n = 6) (human TRPA1 (hTRPA1) [1]; 5 μM): 53.8 ± 2.29% | TRPA1 Activation Rate (Mean ± Standard Error, n = 6) (human TRPA1 (hTRPA1) [1]; 10 μM): 72.5 ± 2.88% | TRPA1 Activation Rate (Mean ± Standard Error, n = 6) (human TRPA1 (hTRPA1) [1]; 50 μM): 92.6 ± 3.83% | TRPA1 Activation Rate (Mean ± Standard Error, n = 6) (human TRPA1 (hTRPA1) [1]; 100 μM): 104 ± 1.94% | TRPA1 Activation Rate (Mean ± Standard Error, n = 6) (human TRPA1 (hTRPA1) [1]; 300 μM): 118 ± 2.65% | TRPA1 Activation Rate (Mean ± Standard Error, n = 6) (human TRPA1 (hTRPA1) [2]; 5 μM, No Antagonist (DMSO 20 μL/mL)): 64.6 ± 1.38% | TRPA1 Activation Rate (Mean ± Standard Error, n = 6) (human TRPA1 (hTRPA1) [2]; 5 μM, With Antagonist A-967079 (1 μM)): 1.46 ± 0.14 % | TRPA1 Activation Rate (Mean ± Standard Error, n = 6) (human TRPA1 (hTRPA1) [2]; 100 μM, No Antagonist (DMSO 20 μL/mL)): 133 ± 1.36% | TRPA1 Activation Rate (Mean ± Standard Error, n = 6) (human TRPA1 (hTRPA1) [2]; 100 μM, With Antagonist A-967079 (1 μM)): 1.61 ± 0.37 % | TRPA1-activating effect in presence of TRPA1-specific antagonist (in words) (human TRPA1 (hTRPA1) [2]; A-967079 1 μM): inhibited by the TRPA1-specific antagonist | TRPA1-activating effect (in words) (human TRPA1 (hTRPA1) [3]; Ca2+ imaging assay 1, summary of Table 1): activated TRPA1 | TRPA1 Activation Rate (Mean ± Standard Error) (human TRPA1 (hTRPA1) [3]; lenthionine 50 μM final concentration): 93.0 ± 3.70%
